According to patent EP4782453A1 (Beyang Therapeutics Co., Ltd., priority 2023, dated 2025):
Like-named read-outs stand apart in the source and are kept apart here.

Target: T1, Menin-MLL (Homo sapiens, UniProt O00255)
T1 construct: His-Menin (M1-L615 end); purchased BIORTUS BP9210
T1 sequence (O00255 1-615 isoform O00255-1): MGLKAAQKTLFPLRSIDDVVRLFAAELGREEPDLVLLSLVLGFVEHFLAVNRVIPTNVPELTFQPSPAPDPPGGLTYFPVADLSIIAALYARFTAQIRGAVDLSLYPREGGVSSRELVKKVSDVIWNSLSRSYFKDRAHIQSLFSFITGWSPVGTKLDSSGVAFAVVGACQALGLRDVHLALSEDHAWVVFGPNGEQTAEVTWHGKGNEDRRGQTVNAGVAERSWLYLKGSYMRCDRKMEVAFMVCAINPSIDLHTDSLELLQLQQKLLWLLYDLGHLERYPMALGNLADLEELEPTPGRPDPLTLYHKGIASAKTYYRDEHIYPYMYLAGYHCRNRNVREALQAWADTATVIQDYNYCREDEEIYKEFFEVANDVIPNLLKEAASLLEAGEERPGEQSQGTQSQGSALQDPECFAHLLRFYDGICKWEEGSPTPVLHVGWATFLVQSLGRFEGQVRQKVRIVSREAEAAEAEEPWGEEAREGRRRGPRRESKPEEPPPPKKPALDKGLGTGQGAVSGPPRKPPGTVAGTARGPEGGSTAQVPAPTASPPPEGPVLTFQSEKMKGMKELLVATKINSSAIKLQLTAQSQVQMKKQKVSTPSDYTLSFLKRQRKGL
Experiment: Inhibitory activity against Menin-MLL binding (fluorescence polarization)
Settings: 150 nM His-Menin, 15 nM FITC-MLL, 25°C for 60 min
Method in brief: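 His-Menin (M1-L615, 150 nM) preincubated with compound 15 min at 25 °C in HEPES pH 7.5, 50 mM NaCl, 1 mM DTT, 0.01% BSA, then 15 nM FITC-MLL4-43 peptide added for 60 min at 25 °C. Fluorescence polarization read; IC50 from 4-parameter logistic fit, duplicates.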

[1] = fluorescence polarization, read-out: Menin-MLL IC50
[2] = Menin-MLL IC50, fluorescence polarization

Row | Structure (SMILES) | IC50 [1] [nM] | IC50 [2] [nM]
1 | CCN(C(=O)c1cc(F)ccc1-c1cc(C2CN([C@H](CCCN3CCNC4(COC4)C3)C(C)C)C2)cn2c(C)ncc12)C(C)C [Example 483, N-ethyl-5-fluoro-2-(3-methyl-6-{1-[(3R)-2-methyl-6-{2-oxa-5,8-diazaspiro[3.5]non-8-yl}hexan-3-yl]azacyclobutan-3-yl}imidazo[1,5-a]pyridin-8-yl)-N-(isopropyl)benzamide] | 19 | 
2 | Cc1nc(F)c2c(-c3ccc(F)cc3C(=O)N3CCOC[C@H]3C)cc(C3CN(C[C@H]4CC[C@H](n5cncn5)CC4)C3)cn12 [Example 253] | 39 | 
3 | CCN(C(=O)c1cc(F)ccc1-c1cc(C2CN([C@@H](CC[C@H]3COCCN3)C(C)C)C2)cn2c(C)ncc12)C(C)C [Example 457-1, N-ethyl-5-fluoro-2-(3-methyl-6-{1-[(3S)-4-methyl-1-[(3S)-morpholin-3-yl]pentan-3-yl]azacyclobutan-3-yl}imidazo[1,5-a]pyridin-8-yl)-N-(isopropyl)benzamide] | 40 | 
4 | COCCN(C)CCCC(C(C)C)N1CC(Cc2cc(-c3ccc(F)cc3C(=O)N3CCOC[C@H]3C)c3cnn(C)c3c2)C1 (some centres unmarked) [Example 179] | 89 | 
5 | CCS(=O)(=O)N[C@H]1CC[C@H](CC(C)N2CC(c3cc(-c4ccc(F)cc4C(=O)N4CCOC[C@H]4C)c4cnn(C)c4c3)C2)CC1 (stereo partly drawn) [Example 175, N-[(1r,4r)-4-{2-[3-(4-{4-fluoro-2-[(3R)-3-methylmorpholin-4-carbonyl]phenyl}-1-methyl-1H-indazol-6-yl)azacyclobutan-1-yl]propyl}cyclohexyl]ethan-1-sulfonamide] |  | 138
6 | CCN(C(=O)c1cc(F)ccc1-c1cc(C2CN([C@@H](C)C3CCN(C(=O)NC)CC3)C2)cn2c(C)nc(F)c12)C(C)C [Example 283-2] | 2 | 
7 | Cc1nc(F)c2c(-c3ccc(F)cc3C(=O)N3CCOC[C@H]3C)cc(C3CN(C(CC[C@H]4CN(C)CCO4)C(C)C)C3)cn12 (stereo partly drawn) [Example 308, (3R)-4-{5-fluoro-2-[1-fluoro-3-methyl-6-(1-{4-methyl-1-[(2S)-4-methylmorpholin-2-yl]pentan-3-yl}azacyclobutan-3-yl)imidazo[1,5-a]pyridin-8yl]benzoyl}-3-methylmorpholine] | 49 | 
8 | COC1(CN2CC(c3cc(-c4ccc(F)cc4C(=O)N4CCOC[C@H]4C)c4c(F)nc(C)n4c3)C2)CCOCC1 [Example 236] | 180 | 
9 | CCN(C(=O)c1cc(F)ccc1-c1cc(C2CN([C@H](CCCN3CCN(C4(C(=O)N(C)C)COC4)CC3)C(C)C)C2)cn2c(C)ncc12)C(C)C [Example 476, 3-{4-[(4R)-4-[3-(8-{2-[ethyl(isopropyl)aminoformyl]-4-fluorophenyl}-3-methylimidazo[1,5-a]pyridin-6-yl)azacyclobutan-1-yl]-5-methylhexyl]piperazin-1-yl}-N,N-dimethyloxacyclobutan-3-formamide] | 1.9 | 
10 | CCN(C(=O)c1cc(F)ccc1-c1cc(N2CCN(CC[C@H]3CC[C@H](NS(=O)(=O)CC)CC3)CC2)cn2c(C)ncc12)C(C)C [Compound 65, N-ethyl-5-fluoro-2-[3-methyl-6-(4-{2-[(1r,4r)-4-ethanesulfonamidocyclohexyl]ethyl}piperazine-1-yl)imidazo[1,5-a]pyridin-8-yl]-N-(isopropyl)benzamide] |  | 136
11 | CCN(C(=O)c1cc(F)ccc1-c1cc(N2CCN(C(=O)C3NC4CCC3CC4)CC2)cn2c(C)ncc12)C(C)C [Compound 59, N-ethyl-5-fluoro-2-(3-methyl-6-{4-[(1R,3S,4S)-2-azabicyclo[2.2.2]octan-3-carbonyl]piperazin-1-yl}imidazo[1,5-a]pyridin-8-yl)-N-(isopropyl)benzamide] |  | 23
12 | CCN(C(=O)c1cc(F)ccc1-n1c(=O)n(CC2CN(C(CCCN3CCN(CCO)CC3)C(C)C)C2)c2c(C)cncc21)C(C)C (centres unmarked) [Example 415, N-ethyl-5-fluoro-2-{1-[(1-{6-[4-(2-hydroxyethyl)piperazin-1-yl]-2-methylhexan-3-yl}azacyclobutan-3-yl)methyl]-7-methyl-2-oxo-1H,2H,3H-imidazo[4,5-c]pyridin-3-yl} N-(isopropyl)benzamide] |  | 160
13 | CCN(C(=O)c1cc(F)ccc1-c1nc(C2CN([C@H](CCCN3CCN(CCC#N)CC3)C(C)C)C2)cn2c(C)ncc12)C(C)C [Example 492] | 270 | 
14 | CCS(=O)(=O)N(C)[C@H]1CC[C@H](CN2CC(c3cc(-c4ccc(F)cc4C(=O)N4CCOC[C@H]4C)c4cnn(C)c4c3)C2)CC1 [Example 174, N-methyl-N-[(1r,4r)-4-{[3-(4-{4-fluoro-2-[(3R)-3-methylmorpholin-4-carbonyl]phenyl}-1-methyl-1H-indazol-6-yl)azacyclobutan-1-yl]methyl}cyclohexyl]ethan-1-sulfonamide] |  | 125
15 | CCN(C(=O)c1cc(F)ccc1-c1cc(C2CCN(C[C@]3(F)CC[C@H](NS(=O)(=O)CC)CC3)C2)cn2c(C)ncc12)C(C)C (some centres unmarked) [Compound 51, N-ethyl-5-fluoro-2-[3-methyl-6-(1-{[(1r,4r)-4-ethanesulfonamido-1-fluorocyclohexyl]methyl}pyrrolidin-3-yl)imidazo[1,5-a]pyridin-8-yl]-N-(isopropyl)benzamide] |  | 64
16 | CCN(C(=O)c1cc(F)ccc1-c1cc(N2CCN(C(=O)C3NCCC3c3ccccc3)CC2)cn2c(C)nc(Cl)c12)C(C)C (centres unmarked) [Example 127] | 73.5 | 
17 | CC(C)N(CC(F)F)C(=O)c1cc(F)ccc1-c1cc(C2CCN(CCN3CCC(NC(=O)OC(C)(C)C)CC3)C2)cc2c1cnn2C (racemic) [Example 166, N-(1-{2-[3-(4-{2-[(2,2-difluoroethyl)(isopropyl)aminoformyl]-4-fluorophenyl}-1-methyl-1H-indazol-6-yl)pyrrolidin-1-yl]ethyl}piperidin-4-yl)tert-butyl carbamate] | 271 | 
18 | CCN(C(=O)c1cc(F)ccc1-c1cc(C2CN([C@@H](CN3CCN(CCO)CC3)C(C)C)C2)cc2c1cnn2C)C(C)C [Example 416-1, N-ethyl-5-fluoro-2-(6-{1-[(2R)-1-[4-(2-hydroxyethyl)piperazin-1-yl]-3-methylbutan-2-yl]azacyclobutan-3-yl}-1-methyl-1H-indazol-4-yl)-N-(isopropyl)benzamide] | 150 | 
19 | CCN(C(=O)c1cc(F)ccc1-c1cc([C@H]2CCN(CC3(O)CCC(NS(=O)(=O)CC)CC3)C2)cc2c1cnn2C)C(C)C (stereo partly drawn) [Compound 55-1-2, N-ethyl-5-fluoro-2-[1-methyl-6-[(3R)-1-{[(1r,4r)-4-ethanesulfonamido-1-hydroxylcyclohexyl]methyl}pyrrolidin-3-yl]-1H-indazol-4-yl]-N-(isopropyl)benzamide] | 120 | 
20 | CNC(=O)N1CCC(CN2CC(c3cc(-c4ccc(F)cc4C(=O)N4CCOC[C@H]4C)c4cnn(C)c4c3)C2)CC1 [Example 172] | 98 | 
21 | CCN(C(=O)c1cc(F)ccc1-c1cc(C2CCN(CC3CCC(NC(=O)OC(C)(C)C)CC3)C2)cc2cncn12)C(C)C (centres unmarked) [Example 24, N-(4-{[3-(5-{2-[ethyl(isopropyl)aminoformyl]-4-fluorophenyl}imidazo[1,5-a]pyridin-7-yl)pyrrolidin-1-yl]methyl}cyclohexyl)tert-butyl carbamate] | 23 | 
22 | Cc1nc(F)c2c(-c3ccc(F)cc3C(=O)N3CCOC[C@H]3C)cc(C3CN(C[C@H]4CC[C@H](c5ncno5)CC4)C3)cn12 [Example 207-1, (3R)-4-{5-fluoro-2-[1-fluoro-3-methyl-6-(1-{[(1r,4r)-4-(1,2,4-oxadiazol-5-yl)cyclohexyl]methyl}azacyclobutan-3-yl)imidazo[1,5-a]pyridin-8yl]benzoyl}-3-methylmorpholine] | 111 | 
23 | Cc1nc(F)c2c(-c3ccc(F)cc3C(=O)N3[C@H](C)COC[C@H]3C)cc(CC3CN(CC4CCOCC4)C3)cn12 [Example 229] | 57 | 
24 | CCN(C(=O)c1cc(F)ccc1-c1cc(C2(O)CN([C@H](CCCN3CCN(CCO)CC3)C(C)C)C2)cn2c(C)ncc12)C(C)C [Example 464-1, N-ethyl-5-fluoro-2-(6-{3-hydroxyl-1-[(3R)-6-[4-(2-hydroxylethyl)piperazin-1-yl]-2-methylhexan-3-yl]azacyclobutan-3-yl}-3-methylimidazo[1,5-a]pyridin-8-yl)-N-(isopropyl)benzamide] | 15 | 
25 | Cc1nc(F)c2c(-c3ccc(F)cc3C(=O)N3CCOC[C@H]3C)cc(C3CN([C@@H](C)C4CCN(C(=O)C5CC5)CC4)C3)cn12 [Example 299] | 15 | 
26 | Cc1nc(F)c2c(-c3ccc(F)cc3C(=O)N3CCOC[C@H]3C)cc(C3CN(C(CC[C@@H]4COCCN4C)C(C)C)C3)cn12 (stereo partly drawn) [Example 372, (3R)-4-{5-fluoro-2-[1-fluoro-3-methyl-6-(1-{4-methyl-1-[(3R)-4-methylmorpholin-3-yl]pentan-3-yl}azacyclobutan-3-yl)imidazo[1,5-a]pyridin-8-yl]benzoyl}-3-methylmorpholine] | 32 | 
